{
  "source": "patent US11873306B1",
  "about": "“Nano-sized 5,10,15,20-tetrakis (4-hydroxyphenyl)-porphyrins pd(II) complex for super medicinal applications” (KING FAISAL UNIVERSITY, priority 2023, dated 2024)",
  "key": {"[1]": {"test_system": "Colon carcinoma cells (HCT-116 cell line)", "test": "Anti-cancer activity, colon carcinoma cells", "assay_type": "cell-based"}, "[2]": {"test_system": "breast cancer cell line", "test": "Anti-cancer activity, breast cancer cell line", "assay_type": "cell-based, human"}, "[3]": {"test_system": "Microccus luteus", "test": "Antimicrobial activity, Microccus luteus (inhibition zone and MIC)", "assay_type": "cell-based"}, "[4]": {"test_system": "E. coli", "test": "Antimicrobial activity, E. coli (inhibition zone and MIC)", "assay_type": "cell-based", "details": "E. coli bacteria"}, "[5]": {"test_system": "Aspergillus flavus", "test": "Antifungal activity, Aspergillus flavus (inhibition zone and MIC)", "assay_type": "cell-based", "details": "Aspergillus flavus fungi"}, "[6]": {"test_system": "breast cancer cell line", "test": "Antioxidant activity", "assay_type": "cell-based", "details": "against a breast cancer cell line"}, "[7]": {"details": "Homo sapiens, read-out: IC50 (anticancer activity)"}},
  "note": "Where two headings read alike, the source gives them in different places.",
  "data": [
    {"compound": "5,10,15,20-Tetrakis (4-hydroxyphenyl)-Porphyrins Pd(II) complex [prepared complex]", "values": [
      {"measurement": "IC50 (anticancer activity)", "setting": "[1]", "result": 4.9, "unit": "µg/mL"},
      {"measurement": "IC50 (anticancer activity)", "setting": "[2]", "result": 4.5, "unit": "µg/mL"},
      {"measurement": "MIC", "setting": "[3]", "result": 0.75, "unit": "µg/mL"},
      {"measurement": "inhibition zone", "setting": "[3]", "result": 41.5, "unit": "mm"},
      {"measurement": "inhibition zone", "setting": "[3]; listed as present complex", "result": "about 41.5 mm"},
      {"measurement": "MIC", "setting": "[4]", "result": 1.5, "unit": "µg/mL"},
      {"measurement": "inhibition zone", "setting": "[4]; listed as prepared nano complex", "result": 33, "unit": "mm"},
      {"measurement": "inhibition zone", "setting": "[4]; listed as present complex", "result": "about 33 mm"},
      {"measurement": "MIC", "setting": "[5]", "result": 1.75, "unit": "µg/mL"},
      {"measurement": "inhibition zone", "setting": "[5]", "result": 23.25, "unit": "mm"},
      {"measurement": "inhibition zone", "setting": "[5]; listed as present complex", "result": "about 23.25 mm"},
      {"measurement": "IC50 (antioxidant activity)", "setting": "[6]", "result": 10.5, "unit": "µg/mL"}
    ]},
    {"compound": "O=C1O[C@H]([C@@H](O)CO)C(O)=C1O", "note": "[1-ascorbic acid, reference compound]", "values": [
      {"measurement": "IC50 (antioxidant activity)", "setting": "[6]", "result": 55.2, "unit": "µg/mL"}
    ]},
    {"compound": "OC(Cn1cncn1)(Cn1cncn1)c1ccc(F)cc1F", "note": "[Fluconazol, reference compound]", "values": [
      {"measurement": "inhibition zone", "setting": "[5]", "result": 22.00, "unit": "mm"},
      {"measurement": "MIC", "setting": "[5]; read-out: MIC", "result": 2.5, "unit": "µg/mL"}
    ]},
    {"compound": "CC1COc2c(N3CCN(C)CC3)c(F)cc3c(=O)c(C(=O)O)cn1c23", "note": "(stereo not drawn) [Ofloxacin, reference compound]", "values": [
      {"measurement": "inhibition zone", "setting": "[3]", "result": 39.75, "unit": "mm"},
      {"measurement": "MIC", "setting": "[3]; read-out: MIC", "result": 1.25, "unit": "µg/mL"},
      {"measurement": "inhibition zone", "setting": "[4]", "result": 30, "unit": "mm"},
      {"measurement": "MIC", "setting": "[4]; Escherichia coli, read-out: MIC", "result": 2.25, "unit": "µg/mL"}
    ]},
    {"compound": "CC[C@]1(O)C[C@@H]2CN(CCc3c([nH]c4ccccc34)[C@@](C(=O)OC)(c3cc4c(cc3OC)N(C)[C@H]3[C@@](O)(C(=O)OC)[C@H](OC(C)=O)[C@]5(CC)C=CCN6CC[C@]43[C@@H]65)C2)C1", "note": "[vinblastine, reference compound]", "values": [
      {"measurement": "IC50", "setting": "[1]; [7]", "result": 5.41, "unit": "µg/mL"},
      {"measurement": "IC50", "setting": "[2]; [7]", "result": 5.2, "unit": "µg/mL"}
    ]}
  ]
}
